Experimental data published in patent publication US20190298666A1, “PROMOTION OF T LYMPHOCYTE PROLIFERATION” (Regents of the University of Minnesota, priority 2018, published 2019).

Key:
[1] = tested on: CD4+ and CD8+ T lymphocytes; experiment: T cell growth/proliferation, mouse splenocytes with anti-CD3 and anti-CD28 antibodies, flow cytometry; format: cell-based, C57BL/6J mouse
Description: (§1) FIGS. 1A-B. Freshly harvested C57BL/6 splenocytes were seeded at 80,000 cells/well in a 96-well plate coated with anti-mouse CD3 (10 ug/ml) and anti-mouse CD28 (1 ug/ml) antibodies. After 24 hour incubation with HBB (0-50 uM), cells were then labeled with anti-mouse CD4-eFlour450, anti-mouse CD8 FITC and anti-mouse Thy1.2 APC-eFluor780 antibodies and analyzed by a flowcytometer. Thy1.2 positive single lymphocytes were gated as T cells and CD4 positive and CD8 positive cells were counted. FIG. 1A. Results are expressed as mean±S.D. (n=6). FIG. 1B. MCF-7 breast cancer cells were incubated in the same concentration range of HBB, also for 24 hours. MTT assay of cell numbers.
(§2) FIG. 4. Freshly harvested C57BL/6 splenocytes were seeded at 80,000 cells/well in a 96-well plate coated with anti-mouse CD3 (10 ug/ml) and anti-mouse CD28 (1 ug/ml) antibodies. After 24 hour incubation with metformin (0-10 mM), cells were then labeled with anti-mouse CD4-eFlour450, anti-mouse CD8 FITC and anti-mouse Thy1.2 APC-eFluor780 antibodies and analyzed by a flowcytometer. Thy1.2 positive single lymphocytes were gated as T cells and CD4 positive and CD8 positive cells were counted.
(§3) HBB effects on T cell growth were tested across a range of concentrations (0 to 50 uM). C57BL/6J mouse splenocytes were incubated with or without biguanides in the presence of anti-mouse CD3 and anti-mouse CD28 antibodies. After 24 hours, cells were labeled with fluorescently tagged antibodies to mouse Thy-1, CD4, CD8, CD25, CD44, CD62L and CD73 surface antigens and T cell subsets were analyzed by flow cytometry.

CD4+ T lymphocytes = experiment: T cell proliferation, mouse splenocytes with anti-CD3 and anti-CD28 antibodies, flow cytometry; format: cell-based, C57BL/6J mouse
Description: as §1, §2, §3

CD8+ T lymphocytes = experiment: as above; format: cell-based, C57BL/6J mouse
Description: as §1, §2, §3

[2] = tested on: breast cancer cell lines and established mouse mammary tumors; conditions: cited from earlier work
[3] = rodents; cited from earlier work
[4] = tested on: MCF-7 breast cancer cells; experiment: MTT assay of cell numbers, MCF-7; format: cell-based; conditions: 0-50 uM, 24 hours, concentrations that induce CD4 and CD8 T cell growth
Description: as §1

[5] = tested on: CD4+CD25+FOXP3- progenitor cells; experiment: TRP conversion assay (IL2-dependent conversion into Tregs); format: cell-based; conditions: 1 U/mL IL2, 3 days
Excerpt: (§4) Each TRP (CD4+CD25+FOXP3- or CD4+CD25−FOXP3+) population was isolated by FACS and stimulated with 1 U/mL IL2 (in complete RPMI) for 3 days then analyzed for upregulation of CD25 and FOXP3 (by GFP reporter).

[6] = tested on: CD4+CD25−FOXP3+ progenitor cells; experiment: as above; format: cell-based; conditions: 1 U/mL IL2, 3 days
Excerpt: as §4

[7] = tested on: Naive, non-Treg CD4 T cells; experiment: iTreg differentiation; format: cell-based; conditions: IL2 and TGFb, 3 days
Description: Naive, non-Treg CD4 T cells were first isolated (these are isolated by magnetic depletion on CD8, CD11b, CD11c, CD19, CD24, CD25, CD44, CD49b, CD105, MHC-II, Gr1, Ter119, B220, TCRg/d). These cells were stimulated with plate bound anti-CD3/CD28 (plates were coated with 5 ug/mL for 2 hours at 37° C.) and given 100 U/mL IL2, 5 ng/mL TGFb and an additional 1 ug/mL anti-Cd28 in cRPMI. After 3 days the cells were stained for CD4, CD8 and CD25 with FOXP3 being on the GFP reporter. Tregs are defined here as CD25+FOXP3+. For this assay, 300,000 cells were plated per well in a 24 well plate.

CYP3A4 [8] = biological target: T1, CYP3A4 (Homo sapiens, UniProt P08684); conditions: cited from earlier work
CYP3A4 [9] = biological target: T1, CYP3A4; conditions: compared with metformin; cited from earlier work

T1 sequence (P08684 whole entry): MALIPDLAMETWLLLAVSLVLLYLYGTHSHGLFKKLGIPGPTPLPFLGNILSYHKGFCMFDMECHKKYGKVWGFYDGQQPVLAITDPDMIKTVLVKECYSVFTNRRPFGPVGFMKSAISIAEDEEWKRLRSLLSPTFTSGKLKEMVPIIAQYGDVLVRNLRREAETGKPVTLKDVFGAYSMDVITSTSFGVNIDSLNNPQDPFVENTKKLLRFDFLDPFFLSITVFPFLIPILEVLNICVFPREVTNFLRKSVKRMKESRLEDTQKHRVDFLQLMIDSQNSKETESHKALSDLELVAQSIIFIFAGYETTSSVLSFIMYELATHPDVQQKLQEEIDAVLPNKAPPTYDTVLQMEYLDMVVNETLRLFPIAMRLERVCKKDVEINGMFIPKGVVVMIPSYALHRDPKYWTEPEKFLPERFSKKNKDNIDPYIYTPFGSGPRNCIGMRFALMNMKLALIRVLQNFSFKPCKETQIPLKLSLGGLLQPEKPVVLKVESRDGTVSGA

SMILES: CN(C)C(=N)N=C(N)N [metformin, reference compound]
- proliferation-inducing activity for T cells ([1]; concentrations below 5 mM): failed to show proliferation-inducing activity
- concentrations causing an increase of CD4+ and CD8+ T lymphocytes ([1]; metformin, 24 hours, FIG. 4): > 5 mM
- increase of CD4+ T cells (CD4+ T lymphocytes; 10 mM): 30%
- increase of CD8+ T cells (CD8+ T lymphocytes; 10 mM): 14%
- concentration range of activity against breast cancer cells [2]: ~5 mM
- maximum tissue concentrations [3]: about 500 microM

SMILES: CCCCCCNC(=N)NC(=N)NCc1ccccc1 [HBB, N1-hexyl-N5-benzyl biguanide]
- greater potency for T cell effects relative to metformin [1]: 1000 fold
- T cell growth at low concentrations ([1]; 0.09 to 1.5 uM, 24 hours): did not inhibit
- proliferation of CD4+ T lymphocytes (CD4+ T lymphocytes; 6 to 12 uM, P<0.05): 1.9 fold
- increase of CD4+ T cells (CD4+ T lymphocytes; 6 to 12 microM): 90%
- effectiveness for expansion of CD4+ T cells ex vivo relative to metformin (CD4+ T lymphocytes; at 1000-fold lower concentration): 3 fold
- proliferation of CD8+ T lymphocytes (CD8+ T lymphocytes; 6 to 12 uM, P<0.05): 1.6 fold
- increase of CD8+ T cells (CD8+ T lymphocytes; 6 to 12 microM): 60%
- effectiveness for expansion of CD8+ T cells ex vivo relative to metformin (CD8+ T lymphocytes; at 1000-fold lower concentration than metformin): 5 fold
- growth of MCF-7 breast cancer cells [4]: inhibit growth
- IL2-dependent conversion into Tregs [5]: blocks
- IL2-dependent conversion into Tregs [6]: blocks
- FOXP3 and CD25 expression of the Treg cells generated [7]: expressed less FOXP3 and CD25
- differentiation of naive T cells into Tregs [7]: inhibits
- concentration range of activity against breast cancer cells [2]: ~0.02 mM
- IC50 ([2]; read-out: IC50, OCR and growth inhibition): 3 to 30 µM
- inhibition of CYP3A4 AA epoxygenase activity (CYP3A4 [8]): potently and specifically inhibits
- affinity for the CYP3A4 heme (CYP3A4 [9]): higher affinity than metformin
